Experimental data reported in US12349708B2, “Use and methods of 1,3-propanediol to improve taste and/or off-taste qualities” (Primient Covation LLC, priority 2019, dated 2025).
“Also recorded” adds a separate entry of the source. Where a name gives a salt, the structure may show the parent alone.

Tests used:
[1] = system: experienced and trained panelist; experiment: Sensorial description of energy drinks and additive solutions with propylene glycol or biologically-produced 1,3-propanediol (multi-sip-and-swallow taste method); conditions: for Sensorial Description: RT;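 on all read-outs here: propylene glycol or 1,3-propanediol added at 0.01, 0.1 or 1.0%, tasted by multi-sip-and-swallow in duplicate, compared with matching controls lacking either additive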
[2] = 0.05% in black tea; U.S. Pat. No. 8,685,436; cited from earlier work

## CC(O)CO (stereo not drawn) [PG, propylene glycol, reference compound]
[1]; 0.01% PG or PDO in 238 ppm sucralose (10% SE) in distilled water
  Sensorial Description: 6-7% SE, significantly less sweet
[1]; 0.01% PG or PDO in 338 ppm caffeine in distilled water (caffeine drink)
  Sensorial Description: Looked similar to Control #72.
[1]; 0.01% PG or PDO in 3,338 ppm caffeine in distilled water (caffeine shot)
  Sensorial Description: (small sip): similar to Control #65.
[1]; 0.01% PG or PDO in 10,500 ppm malic acid and 2,000 ppm sucralose in distilled water
  Sensorial Description: Less sweetness and sourness intensities (different
[1]; 0.01% PG or PDO in Bang energy drink
  Sensorial Description: Significantly less sweet and its lingering but still
[1]; 0.01% PG or PDO in Berry flavor in distilled water
  Sensorial Description: Less dry than Control #114, slight less flavor.
[1]; 0.01% PG or PDO in Monster Energy Zero Ultra
  Sensorial Description: Significant less off-taste, less sourness, significantly
[1]; 0.01% PG or PDO in Monster Energy drink
  Sensorial Description: Note: Loss of carbonation. Significantly less
[1]; 0.01% PG or PDO in NOS High Performance Energy Drink
  Sensorial Description: Significantly less sourness and flavor, less sweet.
[1]; 0.01% PG or PDO in Orange 5-hour ENERGY shot (5HE Orange)
  Sensorial Description: Significantly less flavor and bitterness, still strong
[1]; 0.01% PG or PDO in Red Bull Energy Drink
  Sensorial Description: Much better taste quality overall significantly less
[1]; 0.01% PG or PDO in Red Bull Sugar Free
  Sensorial Description: Significantly less off-tastes, still different off-taste
[1]; 0.01% PG or PDO in Rockstar Original energy drink
  Sensorial Description: Clearer off-flavor than sweet/sour, less sourness but
[1]; 0.01% in 2,000 ppm sucralose in distilled water
  reduction of sweetness and lingering at 1st half of the taste time: lingering, ~40% less at 1st half of the taste time,
[1]; 0.1% PG or PDO in 238 ppm sucralose (10% SE) in distilled water
  Sensorial Description: ~5-6% SE, slightly less sweetness
[1]; 0.1% PG or PDO in 2,000 ppm sucralose in distilled water
  Sensorial Description: (small sip): Less overall sweet quality including 2nd
[1]; 0.1% PG or PDO in 3,338 ppm caffeine in distilled water (caffeine shot)
  Sensorial Description: (small sip): similar to Control #65.
[1]; 0.1% PG or PDO in Berry 5-hour ENERGY shot (5HE Berry)
  Sensorial Description: Significantly less sweet and aftertaste and sweet
[1]; 0.1% PG or PDO in Berry flavor in distilled water
  Sensorial Description: Less dry than 0.01% PG, slight less flavor.
[1]; 0.1% PG or PDO in Monster Energy Zero Ultra
  Sensorial Description: More smooth tasting quality, less sourness, no bitter,
[1]; 0.1% PG or PDO in Monster Energy drink
  Sensorial Description: Note: Loss of carbonation. Similar carbonic acid off-
[1]; 0.1% PG or PDO in NOS High Performance Energy Drink
  Sensorial Description: No bitterness, smoother, still flavor and sweet, less
[1]; 0.1% PG or PDO in Orange 5-hour ENERGY shot (5HE Orange)
  Sensorial Description: Less flavor, no bitterness, still strong sourness but less
[1]; 0.1% PG or PDO in Red Bull Energy Drink
  Sensorial Description: Note: Loss of carbonation. Medium flavor level, less
[1]; 0.1% PG or PDO in Red Bull Sugar Free
  Sensorial Description: Flatter, smoothness, still different off-taste as 0.01%
[1]; 0.1% in 2,000 ppm sucralose in distilled water
  reduction of overall sweet quality: half of tasting time, ~10-20% less than 0.01% PG,
[1]; 1.0% PG or PDO in 79 ppm sucralose (5% SE) in distilled water
  Sensorial Description: Weak PG taste note, similar sweet quality.
[1]; 1.0% PG or PDO in 238 ppm sucralose (10% SE) in distilled water
  Sensorial Description: Slight PG taste, sweet smoother
[1]; 1.0% PG or PDO in 338 ppm caffeine in distilled water (caffeine drink)
  Sensorial Description: Worst quality, more bitterness, medium intensity,
[1]; 1.0% PG or PDO in 2,000 ppm sucralose in distilled water
  Sensorial Description: (small sip): Similar to 0.1% PG. Repeated tests
[1]; 1.0% PG or PDO in 3,338 ppm caffeine in distilled water (caffeine shot)
  Sensorial Description: (small sip): similar to Control #65, no PG taste
[1]; 1.0% PG or PDO in 10,500 ppm malic acid and 2,000 ppm sucralose in distilled water
  Sensorial Description: PF taste note, similar qualities as 0.1% PG.
[1]; 1.0% PG or PDO in 10,500 ppm malic acid, 2,000 ppm sucralose, 3,338 ppm caffeine in distilled water
  Sensorial Description: Stronger, thinner sourness quality.
[1]; 1.0% PG or PDO in B vitamins at 5-hour Energy shot concentrations in distilled water
  Sensorial Description: PG flavor taste, similar other qualities as Control
[1]; 1.0% PG or PDO in Berry 5-hour ENERGY shot (5HE Berry)
  Sensorial Description: Began to show more sourness across the taste, still
[1]; 1.0% PG or PDO in Berry flavor in distilled water
  Sensorial Description: Less dry than Control #114, slight less flavor.
[1]; 1.0% PG or PDO in Monster Energy Zero Ultra
  Sensorial Description: Very smooth, flat tasting quality of basic tastes, no
[1]; 1.0% PG or PDO in Monster Energy drink
  Sensorial Description: Note: Little carbonation. Little or no sourness, very
[1]; 1.0% PG or PDO in NOS High Performance Energy Drink
  Sensorial Description: Smoother than 0.1% PG, low-medium flavor, low
[1]; 1.0% PG or PDO in Orange 5-hour ENERGY shot (5HE Orange)
  Sensorial Description: Less flavor, sourness and sweetness, still moderate
[1]; 1.0% PG or PDO in Red Bull Energy Drink
  Sensorial Description: Note: significantly less or no carbonation. Low
[1]; 1.0% PG or PDO in Red Bull Sugar Free
  Sensorial Description: Medium off-flavor (not described) in middle tasting
[1]; 1.0% PG or PDO in Rockstar Original energy drink
  Sensorial Description: Slight off-flavor (seems like PDO's off flavor), little
[1]; 2,000 ppm, 238 ppm, or 70 ppm sucralose in distilled water
  reduction in unpleasant taste or masking of off-taste: No reduction in unpleasant taste, or masking of off-taste
[1]; 3,382 ppm or 338 ppm caffeine in distilled water
  reduction of unpleasant taste / masking of bitterness: did not reduce the unpleasant taste, or mask the bitterness
[1]; aqueous B vitamins at concentrations comparable to 5-hour ENERGY shots
  taste modulation of B vitamins: did not positively modulate
[1]; berry flavor in distilled water
  modulation of berry flavor: Neither biologically-produced 1,3-propanediol, nor propylene glycol modulated the flavor
[1]; malic acid at 10,500 ppm in distilled water
  taste modulation or sour masking: no positive taste modulation or sour masking effect
[1]; separate caffeine, malic acid, and sucralose solutions at mega-dose levels
  taste modulation of single additive solutions: did not positively modulate the taste or mask the bitter, off, or sour tastes; also recorded: neither propylene glycol, nor biologically-produced 1,3-propanediol modulated the taste

## O=C(O)CC(O)C(=O)O (stereo not drawn) [malic acid]
[1]; control: 10,500 ppm malic acid in distilled water, no PG or PDO
  Sensorial Description: Extreme sourness, clean sourness quality, slightly dry

## OC[C@H]1O[C@H](O[C@]2(CCl)O[C@H](CCl)[C@@H](O)[C@@H]2O)[C@H](O)[C@@H](O)[C@H]1Cl [sucralose]
[1]; control: 79 ppm sucralose in distilled water, no PG or PDO
  Sensorial Description: Comfortably 5% SE sweet, good sweet quality
[1]; control: 238 ppm sucralose in distilled water, no PG or PDO
  Sensorial Description: 10% SE, delayed onset of sweetness, very sweet
[1]; control: 2,000 ppm sucralose in distilled water, no PG or PDO
  Sensorial Description: (small sip): Extremely sweet, extremely strong sweet

## COc1cc([C@@H]2CC(=O)c3c(O)cc(O)cc3O2)ccc1O [homoeriodictyol disodium salt]
[2]
  perceived bitterness: reduced the perceived bitterness
